Patent publication US8846951B2 (AbbVie Inc., priority 2009, dated 2014)
Like-named read-outs stand apart in the source and are kept apart here.

How the values were obtained:
5HT2B receptors = biological target: T1, 5HT2B receptors (Homo sapiens, UniProt P41595); test: Human 5-HT2B functional high throughput screening assay in CHO-K1 cells (calcium flux); assay type: cell-based; details: for EC50: CHO-K1 cells, calcium flux
T1 construct: expressed in transfected cells; host or cells: CHO-K1 cells
T1 sequence (P41595 whole entry): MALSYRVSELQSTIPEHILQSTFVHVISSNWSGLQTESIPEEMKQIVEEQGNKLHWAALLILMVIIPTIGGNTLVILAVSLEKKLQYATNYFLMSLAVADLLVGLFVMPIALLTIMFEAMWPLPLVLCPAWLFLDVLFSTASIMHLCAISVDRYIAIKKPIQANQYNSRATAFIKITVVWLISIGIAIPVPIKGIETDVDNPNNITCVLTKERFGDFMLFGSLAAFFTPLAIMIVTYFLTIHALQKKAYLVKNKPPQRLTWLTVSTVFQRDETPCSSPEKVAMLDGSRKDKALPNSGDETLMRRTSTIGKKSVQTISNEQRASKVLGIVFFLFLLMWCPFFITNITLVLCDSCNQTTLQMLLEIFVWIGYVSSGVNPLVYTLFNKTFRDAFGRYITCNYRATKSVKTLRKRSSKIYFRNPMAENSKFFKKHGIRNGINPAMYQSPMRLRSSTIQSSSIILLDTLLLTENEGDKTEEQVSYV
Outline: (§1)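 Serum-starved CHO-K1 cells carrying the receptor; Ca4 dye, 60 min RT. Test compound added after a 10 s baseline, fluorescence followed for 3 min. EC50 from 4-parameter fit; Emax given as % of serotonin effect.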

5HT2C receptors = biological target: T2, 5HT2C receptors (Homo sapiens, UniProt P28335); test: Human 5-HT2C functional high throughput screening assay in CHO-K1 cells (calcium flux); assay type: cell-based; parameters: expressed in transfected cells; host or cells: CHO-K1 cells; details: for Emax: CHO-K1, 5-HT2C, maximum functional response as percentage relative to the effect of serotonin; for EC50: CHO-K1 cells, calcium flux
T2 sequence (P28335 33-458): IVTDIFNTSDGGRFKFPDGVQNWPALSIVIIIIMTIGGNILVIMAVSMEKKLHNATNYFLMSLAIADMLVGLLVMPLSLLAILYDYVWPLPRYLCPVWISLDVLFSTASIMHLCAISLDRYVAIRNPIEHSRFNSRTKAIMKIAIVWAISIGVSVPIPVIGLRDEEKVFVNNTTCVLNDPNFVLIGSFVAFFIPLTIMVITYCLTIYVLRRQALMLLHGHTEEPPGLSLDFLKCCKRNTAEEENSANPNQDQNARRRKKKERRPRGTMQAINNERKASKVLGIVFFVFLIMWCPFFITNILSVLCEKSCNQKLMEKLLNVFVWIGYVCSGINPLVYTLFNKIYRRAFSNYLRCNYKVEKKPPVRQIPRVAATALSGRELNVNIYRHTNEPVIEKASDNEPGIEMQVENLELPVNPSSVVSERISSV
Outline: as §1

[1] = 5-HT2B, maximum functional response as percentage relative to the effect of serotonin

| EC50 (5HT2B receptors; 5-HT2B agonist activity, read-out: EC50) | EC50 (5HT2C receptors; 5-HT2C agonist activity, read-out: EC50) | Emax (5HT2C receptors; read-out: Emax) | Compound | Emax (5HT2B receptors; CHO-K1) | EC50 (5HT2B receptors; EC50, 5-HT2B agonist activity) | Emax (5HT2C receptors) | EC50 (5HT2C receptors; EC50, 5-HT2C agonist activity) | Emax (5HT2B receptors; [1]) |
| --- | --- | --- | --- | --- | --- | --- | --- | --- |
|  |  |  | Fc1cc(F)c2c(c1)[C@H]1CNC[C@@H]1CCO2 (relative stereo) [Example 283, Trans-7,9-difluoro-2,3,3a,4,5,10b-hexahydro-1H-[1]benzoxepino[4,5-c]pyrrole] | 50% | 60 nM | 80% | 800 nM |  |
|  |  |  | Fc1ccc2c(c1)[C@@H]1CNC[C@@H]1CCO2 (relative stereo) [Example 284, Cis-9-fluoro-2,3,3a,4,5,10b-hexahydro-1H-[1]benzoxepino[4,5-c]pyrrole] | 55% | 10 nM | 85% | 400 nM |  |
|  |  |  | FC(F)(F)Oc1cccc2c1OCC[C@H]1CNC[C@H]21 (relative stereo) [Example 285, Trans-7-(trifluoromethoxy)-2,3,3a,4,5,10b-hexahydro-1H-[1]benzoxepino[4,5-c]pyrrole] | 90% | 9 nM | 100% | < 0.1 nM |  |
|  |  |  | Fc1ccc2c(c1)[C@H]1CNC[C@@H]1CCO2 (relative stereo) [Example 286, Trans-9-fluoro-2,3,3a,4,5,10b-hexahydro-1H-[1]benzoxepino[4,5-c]pyrrole] | 60% | 50 nM | 90% | 300 nM |  |
|  |  |  | Fc1cccc2c1[C@H]1CNC[C@@H]1CCO2 (relative stereo) [Example 287, Trans-10-fluoro-2,3,3a,4,5,10b-hexahydro-1H-[1]benzoxepino[4,5-c]pyrrole] | 40% | 300 nM | 95% | 50 nM |  |
|  |  |  | Fc1ccc(F)c2c1OCC[C@H]1CNC[C@@H]21 (relative stereo) [Example 288, Cis-7,10-difluoro-2,3,3a,4,5,10b-hexahydro-1H-[1]benzoxepino[4,5-c]pyrrole] | 50% | 700 nM | 90% | 40 nM |  |
|  |  |  | Fc1ccc(F)c2c1OCC[C@H]1CNC[C@H]21 (relative stereo) [Example 289, Trans-7,10-difluoro-2,3,3a,4,5,10b-hexahydro-1H-[1]benzoxepino[4,5-c]pyrrole] | 95% | 100 nM | 90% | 7 nM |  |
|  |  |  | Cc1ccc2c(c1)[C@H]1CNC[C@@H]1CCO2 (relative stereo) [Example 290, Trans-9-methyl-2,3,3a,4,5,10b-hexahydro-1H-[1]benzoxepino[4,5-c]pyrrole] | 35% | 20 nM | 80% | 100 nM |  |
|  |  |  | Cc1cccc2c1OCC[C@H]1CNC[C@H]21 (relative stereo) [Example 291, Trans-7-methyl-2,3,3a,4,5,10b-hexahydro-1H-[1]benzoxepino[4,5-c]pyrrole] | 60% | 10 nM | 95% | 0.4 nM |  |
|  |  |  | Clc1cccc2c1OCC[C@H]1CNC[C@@H]21 (relative stereo) [Example 295, Cis-7-chloro-2,3,3a,4,5,10b-hexahydro-1H-[1]benzoxepino[4,5-c]pyrrole] | 40% | 60 nM | 100% | 10 nM |  |
| > 10000 nM | 1 nM | 100% | CC(=O)c1ccc(-c2ccc3c(c2)C(=O)NC[C@@H]2CNC[C@@H]32)s1 (relative stereo) [Example 296, Trans-8-(5-acetyl-2-thienyl)-2,3,3a,4,5,10b-hexahydropyrrolo[3,4-d][2]benzazepin-6(1H)-one] |  |  |  |  | inactive |
|  |  |  | CC(C)CNc1ccc2c(c1)C(=O)NC[C@@H]1CN(C)C[C@@H]21 (relative stereo) [Example 297, Trans-8-(isobutylamino)-2-methyl-2,3,3a,4,5,10b-hexahydropyrrolo[3,4-d][2]benzazepin-6(1H)-one] |  | > 10000 nM | 80% | 100 nM | inactive |
